Patent publication US8178658B2 (Dow AgroSciences, LLC, priority 2008, dated 2012)

Columns and labels:
[1] = system: beet armyworm (BAW; Spodoptera exigua: Lepidoptera); assay: 128-well diet tray assay on beet armyworm (BAW 50); type: in vivo; conditions: for BAW 50 ug/cm2: 128-well diet tray assay, 50 μg/cm^2 of test compound on diet, second instar BAW larvae, mortality class; for pest or weed control at 50 µg/cm2, 50 µg/cm2: Spodoptera exigua, 144 h, read-out: BAW 50 ug/cm2
Summary of the method: (§1)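 Percent larval mortality after six days was the endpoint. Higher-throughput plates used eggs, 12 μg compound per well and 29° C darkness; trays used second instar larvae, a 50 μg/cm^2 dose and 25° C with 14:10 light cycle.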

[2] = system: beet armyworm (BAW; Spodoptera exigua: Lepidoptera); assay: 96-well microtiter plate-based high throughput (HTS) diet bioassay on beet armyworm (BAW HTS); type: in vivo; conditions: for BAW HTS: BAW eggs, 12 μg test compound per well, mortality at 6 d post-treatment, mortality class; for pest or weed control at 12 µg/well, 12 µg/well: Spodoptera exigua, 144 h, read-out: BAW HTS
Summary of the method: as §1

[3] = 96-well microtiter plate HTS diet assay

Which “BAW 50 ug/cm2” value [1] does the source give for `C=C(C)c1nc(-c2ccc(NC(=O)O[C@@H]3O[C@@H](C)[C@H](OC)[C@@H](OCC)[C@H]3OC)cc2)nn1-c1ccc(OC(F)(F)F)cc1` [Compound 220] here?
The value was “A (the compound was tested and at least 50 percent mortality was observed)”.

What about the “BAW HTS” value ([2]; 96-well HTS diet assay) of the same compound?
Its value is “B (either (1) the compound was tested and less than 50 percent mortality was observed or (2) the compound was not tested)”.

And the “BAW HTS” value [2, 3]?
Its value is “B (either (1) the compound was tested and less than 50 percent mortality was observed or (2) the compound was not tested)”.

`CCO[C@@H]1[C@@H](OC)[C@H](C)O[C@@H](OC(=O)Nc2ccc(-c3nc(CCSC)n(-c4ccc(OC(F)(F)F)cc4)n3)cc2)[C@@H]1OC` [Compound 221] was tested. Which “BAW 50 ug/cm2” value [1] did it give?
The value was “A (the compound was tested and at least 50 percent mortality was observed)”.

What about the “BAW HTS” value ([2]; 96-well HTS diet assay) of the same compound?
The value was “B (either (1) the compound was tested and less than 50 percent mortality was observed or (2) the compound was not tested)”.

And the “BAW HTS” value [2, 3]?
Its value is “B (either (1) the compound was tested and less than 50 percent mortality was observed or (2) the compound was not tested)”.

What does the source list for `CCO[C@@H]1[C@@H](OC)[C@H](C)O[C@@H](OC(=O)Nc2ccc(-c3nc(C(F)(F)F)n(-c4ccc(OC(F)(F)F)cc4)n3)cc2)[C@@H]1OC` [Compound 222]?
BAW 50 ug/cm2 [1]: A (the compound was tested and at least 50 percent mortality was observed); BAW HTS ([2]; 96-well HTS diet assay): B (either (1) the compound was tested and less than 50 percent mortality was observed or (2) the compound was not tested); BAW HTS [2, 3]: B (either (1) the compound was tested and less than 50 percent mortality was observed or (2) the compound was not tested)

What does the source list for `CCO[C@@H]1[C@@H](OC)[C@H](C)O[C@@H](OC(=O)Nc2ccc(-c3ncn(-c4ccc(OC(F)(F)F)cc4)n3)cc2Br)[C@@H]1OC` [Compound 223]?
BAW 50 ug/cm2 [1]: A (the compound was tested and at least 50 percent mortality was observed); BAW HTS ([2]; 96-well HTS diet assay): B (either (1) the compound was tested and less than 50 percent mortality was observed or (2) the compound was not tested); BAW HTS [2, 3]: B (either (1) the compound was tested and less than 50 percent mortality was observed or (2) the compound was not tested)

`CCO[C@@H]1[C@@H](OC)[C@H](C)O[C@@H](OC(=O)Nc2ccc(-c3ncn(-c4ccc(OC(F)(F)C(F)(F)F)cc4)n3)cc2Br)[C@@H]1OC` [Compound 224] was tested. Which “BAW 50 ug/cm2” value [1] did it give?
Its value is “A (the compound was tested and at least 50 percent mortality was observed)”.

What about the “BAW HTS” value ([2]; 96-well HTS diet assay) of the same compound?
Its value is “B (either (1) the compound was tested and less than 50 percent mortality was observed or (2) the compound was not tested)”.

What about the “BAW HTS” value [2, 3] of the same compound?
The value was “B (either (1) the compound was tested and less than 50 percent mortality was observed or (2) the compound was not tested)”.

With `CCO[C@@H]1[C@@H](OC)[C@H](C)O[C@@H](OC(=O)Nc2ccc(-c3ncn(-c4ccc(OC(F)(F)C(F)(F)C(F)(F)F)cc4)n3)cc2)[C@@H]1OC` [Compound 225] as the compound, how does the “BAW 50 ug/cm2” value [1] read?
The value was “A (the compound was tested and at least 50 percent mortality was observed)”.

And the “BAW HTS” value ([2]; 96-well HTS diet assay)?
The value was “B (either (1) the compound was tested and less than 50 percent mortality was observed or (2) the compound was not tested)”.

And the “BAW HTS” value [2, 3]?
The value was “B (either (1) the compound was tested and less than 50 percent mortality was observed or (2) the compound was not tested)”.

With `CCO[C@@H]1[C@@H](OC)[C@H](C)O[C@@H](OC(=O)Nc2ccc(-n3c(C(=O)OC)nn(-c4ccc(OC(F)(F)F)cc4)c3=O)cc2)[C@@H]1OC` [Compound 226] as the compound, how does the “BAW 50 ug/cm2” value [1] read?
Its value is “B (either (1) the compound was tested and less than 50 percent mortality was observed or (2) the compound was not tested)”.

And the “BAW HTS” value ([2]; 96-well HTS diet assay)?
The value was “B (either (1) the compound was tested and less than 50 percent mortality was observed or (2) the compound was not tested)”.

What about the “BAW HTS” value [2, 3] of the same compound?
Its value is “B (either (1) the compound was tested and less than 50 percent mortality was observed or (2) the compound was not tested)”.

What does the source list for `CCO[C@@H]1[C@@H](OC)[C@H](C)O[C@H](OC(=O)Nc2ccc(-n3c(C(=O)OC)nn(-c4ccc(OC(F)(F)F)cc4)c3=O)cc2)[C@@H]1OC` [Compound 227]?
BAW 50 ug/cm2 [1]: B (either (1) the compound was tested and less than 50 percent mortality was observed or (2) the compound was not tested); BAW HTS ([2]; 96-well HTS diet assay): B (either (1) the compound was tested and less than 50 percent mortality was observed or (2) the compound was not tested); BAW HTS [2, 3]: B (either (1) the compound was tested and less than 50 percent mortality was observed or (2) the compound was not tested)

Which results are given for `CCO[C@@H]1[C@@H](OC)[C@H](C)O[C@@H](OC(=O)Nc2ccc(-n3cnn(-c4ccc(OC(F)(F)F)cc4)c3=O)cc2)[C@@H]1OC` [Compound 228]?
BAW 50 ug/cm2 [1]: B (either (1) the compound was tested and less than 50 percent mortality was observed or (2) the compound was not tested); BAW HTS ([2]; 96-well HTS diet assay): B (either (1) the compound was tested and less than 50 percent mortality was observed or (2) the compound was not tested); BAW HTS [2, 3]: B (either (1) the compound was tested and less than 50 percent mortality was observed or (2) the compound was not tested)

`CO[C@@H]1[C@@H](OC)[C@H](C)O[C@@H](OC(=O)Nc2ccc(-n3cnc(-c4ccc(C(F)(F)F)cc4)n3)cc2)[C@@H]1OC` [Compound 229] was tested. Which “BAW 50 ug/cm2” value [1] did it give?
The value was “A (the compound was tested and at least 50 percent mortality was observed)”.

And the “BAW HTS” value ([2]; 96-well HTS diet assay)?
Its value is “A (the compound was tested and at least 50 percent mortality was observed)”.

What about the “BAW HTS” value [2, 3] of the same compound?
The value was “A (the compound was tested and at least 50 percent mortality was observed)”.

For `CO[C@@H]1[C@@H](OC)[C@H](C)O[C@@H](OC(=O)Nc2ccc(-c3nnc(-c4ccc(Cl)cc4Cl)o3)cc2)[C@@H]1OC` [Compound 230], which “BAW 50 ug/cm2” value [1] is on record?
The value was “A (the compound was tested and at least 50 percent mortality was observed)”.

What about the “BAW HTS” value ([2]; 96-well HTS diet assay) of the same compound?
The value was “B (either (1) the compound was tested and less than 50 percent mortality was observed or (2) the compound was not tested)”.

And the “BAW HTS” value [2, 3]?
The value was “B (either (1) the compound was tested and less than 50 percent mortality was observed or (2) the compound was not tested)”.

For `CO[C@@H]1[C@@H](OC)[C@H](C)O[C@@H](OC(=O)Nc2ccc(-c3ccnc(-c4ccc(C(F)(F)F)cc4)n3)cc2)[C@@H]1OC` [Compound 232, {4-[2-(4-trifluoromethylphenyl)-pyrimidin-4-yl]-phenyl}-carbamic acid (2S,3R,4R,5S,6S)-3,4,5-trimethoxy-6-methyl-tetrahydropyran-2-yl ester], which “BAW 50 ug/cm2” value [1] is on record?
The value was “A (the compound was tested and at least 50 percent mortality was observed)”.

What about the pest or weed control at 50 µg/cm2, 50 µg/cm2 [1] of the same compound?
The pest or weed control at 50 µg/cm2, 50 µg/cm2 was over 50%.

And the “BAW HTS” value [2, 3]?
The value was “A (the compound was tested and at least 50 percent mortality was observed)”.

What about the pest or weed control at 12 µg/well, 12 µg/well [2] of the same compound?
Its pest or weed control at 12 µg/well, 12 µg/well is over 50%.

What does the source list for `CO[C@@H]1[C@@H](OC)[C@H](C)O[C@@H](OC(=O)Nc2ccc(-c3cc(C(F)(F)C(F)(F)C(F)(F)F)nc(-c4ccc(C(F)(F)F)cc4)n3)cc2)[C@@H]1OC` [Compound 233]?
BAW 50 ug/cm2 [1]: A (the compound was tested and at least 50 percent mortality was observed); BAW HTS ([2]; 96-well HTS diet assay): B (either (1) the compound was tested and less than 50 percent mortality was observed or (2) the compound was not tested); BAW HTS [2, 3]: B (either (1) the compound was tested and less than 50 percent mortality was observed or (2) the compound was not tested)

With `COc1ccc(-c2nccc(-c3ccc(NC(=O)O[C@@H]4O[C@@H](C)[C@H](OC)[C@@H](OC)[C@H]4OC)cc3)n2)cc1` [Compound 234, {4-[2-(4-methoxyphenyl)-pyrimidin-4-yl]-phenyl}-carbamic acid (2S,3R,4R,5S,6S)-3,4,5-trimethoxy-6-methyl-tetrahydropyran-2-yl ester] as the compound, how does the “BAW 50 ug/cm2” value [1] read?
Its value is “B (either (1) the compound was tested and less than 50 percent mortality was observed or (2) the compound was not tested)”.

What about the pest or weed control at 50 µg/cm2, 50 µg/cm2 [1] of the same compound?
The pest or weed control at 50 µg/cm2, 50 µg/cm2 was under 50%.

And the “BAW HTS” value [2, 3]?
The value was “B (either (1) the compound was tested and less than 50 percent mortality was observed or (2) the compound was not tested)”.

What about the pest or weed control at 12 µg/well, 12 µg/well [2] of the same compound?
Its pest or weed control at 12 µg/well, 12 µg/well is under 50%.

For `CO[C@@H]1[C@@H](OC)[C@H](C)O[C@@H](OC(=O)Nc2ccc(-c3cc(C(F)(F)F)nc(-c4ccc(C(F)(F)F)cc4)n3)cc2)[C@@H]1OC` [Compound 235], which “BAW 50 ug/cm2” value [1] is on record?
Its value is “B (either (1) the compound was tested and less than 50 percent mortality was observed or (2) the compound was not tested)”.

What about the “BAW HTS” value ([2]; 96-well HTS diet assay) of the same compound?
Its value is “A (the compound was tested and at least 50 percent mortality was observed)”.

What about the “BAW HTS” value [2, 3] of the same compound?
Its value is “A (the compound was tested and at least 50 percent mortality was observed)”.

What does the source list for `CCCO[C@@H]1[C@@H](OC)[C@H](C)O[C@@H](OC(=O)Nc2ccc(-c3ncc(-c4ccc(OC(F)(F)F)cc4)cn3)cc2)[C@@H]1OC` [Compound 236]?
BAW 50 ug/cm2 [1]: A (the compound was tested and at least 50 percent mortality was observed); BAW HTS ([2]; 96-well HTS diet assay): B (either (1) the compound was tested and less than 50 percent mortality was observed or (2) the compound was not tested); BAW HTS [2, 3]: B (either (1) the compound was tested and less than 50 percent mortality was observed or (2) the compound was not tested)

How did the “BAW 50 ug/cm2” value [1] turn out when `CCO[C@@H]1[C@@H](OC)[C@H](C)O[C@@H](OC(=O)Nc2ccc(-c3nncc(-c4ccc(OC(F)(F)F)cc4)n3)cc2)[C@@H]1OC` [Compound 237] was run?
Its value is “A (the compound was tested and at least 50 percent mortality was observed)”.

And the “BAW HTS” value ([2]; 96-well HTS diet assay)?
The value was “B (either (1) the compound was tested and less than 50 percent mortality was observed or (2) the compound was not tested)”.

And the “BAW HTS” value [2, 3]?
The value was “B (either (1) the compound was tested and less than 50 percent mortality was observed or (2) the compound was not tested)”.

How did the “BAW 50 ug/cm2” value [1] turn out when `CCO[C@@H]1[C@@H](OC)[C@H](C)O[C@@H](OC(=O)Nc2ccc(-c3cnnc(-c4ccc(OC(F)(F)F)cc4)n3)cc2)[C@@H]1OC` [Compound 238] was run?
The value was “A (the compound was tested and at least 50 percent mortality was observed)”.

And the “BAW HTS” value ([2]; 96-well HTS diet assay)?
The value was “B (either (1) the compound was tested and less than 50 percent mortality was observed or (2) the compound was not tested)”.

And the “BAW HTS” value [2, 3]?
The value was “B (either (1) the compound was tested and less than 50 percent mortality was observed or (2) the compound was not tested)”.
